Molecular target: Human immunodeficiency virus type 1 protease (Human immunodeficiency virus 1, UniProt Q72874)
Assay: Potency to inhibit HIV-1 protease

Row | Compound | Ki [nM]
1 | O=C(NC1c2ccccc2C[C@H]1O)[C@H](Cc1ccccc1)C[C@H](O)CN1C(=O)N(Cc2ccncc2)CC1Cc1ccccc1 (stereo not given in full) | 190
2 | O=C(NC1c2ccccc2C[C@H]1O)[C@H](Cc1ccccc1)C[C@H](O)CN1C(=O)N(Cc2ccccc2)CC1Cc1ccccc1 (stereo not given in full) | 1.2
3 | CS(=O)(=O)c1ccc(CN2CC(Cc3ccccc3)N(C[C@@H](O)C[C@@H](Cc3ccccc3)C(=O)NC3c4ccccc4C[C@H]3O)C2=O)cc1 (stereo not given in full) | 300
4 | C[C@]1(Cc2ccccc2)C[C@H](Cc2ccccc2)N(C[C@@H](O)C[C@@H](Cc2ccccc2)C(=O)N[C@H]2c3ccccc3C[C@H]2O)C1=O | 170

More lines, now with the values ahead:

Row | Ki [nM] | Compound
5 | 18 | O=C(NC1c2ccccc2C[C@H]1O)[C@H](Cc1ccccc1)C[C@H](O)CN1C(=O)N(Cc2cccnc2)CC1Cc1ccccc1 (stereo not given in full)
6 | 41 | O=C(NC1c2ccccc2C[C@H]1O)[C@H](Cc1ccccc1)C[C@H](O)CN1C(=O)N(Cc2ccccn2)CC1Cc1ccccc1 (stereo not given in full)
7 | 0.06 | O=C(NC1c2ccccc2C[C@H]1O)[C@H](Cc1ccccc1)C[C@H](O)CN1C(=O)[C@@H](Cc2ccccc2)CC1Cc1ccccc1 (stereo not given in full)
8 | 3.2 | O=C(NC1c2ccccc2C[C@H]1O)[C@H](Cc1ccccc1)C[C@H](O)CN1C(=O)N(Cc2cccc(F)c2)CC1Cc1ccccc1 (stereo not given in full)
9 | 100 | Cc1cc(CN2CC(Cc3ccccc3)N(C[C@@H](O)C[C@@H](Cc3ccccc3)C(=O)NC3c4ccccc4C[C@H]3O)C2=O)cc(C)c1C (stereo not given in full)
10 | 5.6 | COc1ccc(CN2CC(Cc3ccccc3)N(C[C@@H](O)C[C@@H](Cc3ccccc3)C(=O)NC3c4ccccc4C[C@H]3O)C2=O)cc1 (stereo not given in full)
